The values below come from article PMC12040169 (PLOS Biology, 2025).

The nature of the first data set: in vitro. As to conditions: human, hela cells, % viability.
On to `O=C(NCc1c(Cl)cccc1Cl)N(Cc1cccnc1)Cc1ccc2c(c1)OCO2` [CBK159450], for which the viability – broadly, a read-out of living cells in per cent, often relative to untreated cells – at 28.5 h, 10 µM is 96.8%. With `COc1ccc(CNC(=O)N(Cc2cccnc2)Cc2ccc3c(c2)OCO3)cc1OC` [CBK159456], the viability at 28.5 h, 10 µM stood at 87.3%. As for `COc1ccc(-c2csc(CC(=O)O)n2)cc1` [CBK159469], the viability at 28.5 h, 10 µM worked out at 85.4%.

For the molecule `COc1cc(C)ccc1S(=O)(=O)Nc1cccc2cc[nH]c12` [CBK159511], the viability at 28.5 h, 10 µM worked out at 81.8%. As for `O=S(=O)(Nc1cccc2cc[nH]c12)c1ccc(Br)cc1C(F)(F)F` [CBK159519], the viability at 28.5 h, 10 µM was found to be 88.5%. As for `CS(=O)(=O)Nc1ccc2c(ccn2Cc2ccccc2)c1` [CBK159527], the viability at 28.5 h, 10 µM stood at 104%.

For the molecule `O=S(=O)(Nc1ccc2c(ccn2Cc2ccccc2)c1)c1cc(C(F)(F)F)cc(C(F)(F)F)c1` [CBK159540], the viability at 28.5 h, 10 µM was 94.7%. For `Cn1cnc(S(=O)(=O)Nc2cccc3cc[nH]c23)c1` [CBK159554], the viability at 28.5 h, 10 µM worked out at 94%. Turning to `CCc1c(C)nc2c(NC(C)=O)cccc2c1SCCC(=O)O` [CBK159594T], the viability at 28.5 h, 10 µM amounted to 106%. With `O=C(Nc1ccc2[nH]ccc2c1)c1ccc(Cl)cc1` [CBK159668], the viability at 28.5 h, 10 µM worked out at 98.4%. Same read-out and setting: under `O=C(Nc1ccc2[nH]ccc2c1)c1ccc(Br)cc1Cl` [CBK159679] stands 106%; under `O=C(Cc1cc(F)c(F)c(F)c1)Nc1ccc2[nH]ccc2c1` [CBK159684], 91.7%. `O=C(COc1ccc(F)cc1)Nc1ccc2[nH]ccc2c1` [CBK159689]: the viability at 28.5 h, 10 µM is 98.6%.

Take `CN(C)CCCC(=O)Nc1ccc2[nH]ccc2c1` [CBK159698]: the viability at 28.5 h, 10 µM stood at 114%.

As to `CN1CCC[C@H]1C(=O)Nc1ccc2[nH]ccc2c1` [CBK159699], the viability at 28.5 h, 10 µM came out at 97.6%. Still for that read-out and setting: under `O=C(Cc1ccc(Cl)c(Cl)c1)NCCc1c[nH]c2ccc(Cl)cc12` [CBK159749] stands 100%. Take `O=C(NCCc1c[nH]c2ccc(Cl)cc12)c1ccc(Cl)cc1Cl` [CBK159750]: the viability at 28.5 h, 10 µM is 105%.

Turning to `O=C(Cc1cc(Cl)ccc1C(F)(F)F)NCCc1c[nH]c2ccc(Cl)cc12` [CBK159759], the viability at 28.5 h, 10 µM was 80.2%. As for `O=C(NCCc1c[nH]c2ccc(Cl)cc12)c1ccc(Br)cc1Cl` [CBK159762], the viability at 28.5 h, 10 µM came to 89.1%.

For the molecule `O=C(Cc1cc(F)c(F)c(F)c1)NCCc1c[nH]c2ccc(Cl)cc12` [CBK159768], the viability at 28.5 h, 10 µM was found to be 112%. Regarding `NS(=O)(=O)c1ccc(C(=O)NCCc2c[nH]c3ccc(Cl)cc23)cc1` [CBK159780], the viability at 28.5 h, 10 µM amounted to 95.2%.

In the case of `O=C(NCCc1c[nH]c2ccc(Cl)cc12)c1ccoc1` [CBK159782], the viability at 28.5 h, 10 µM came to 97.9%.

Regarding `O=C(Cc1ccc(Cl)cc1Cl)Nc1ccc2ncccc2c1` [CBK159787], the viability at 28.5 h, 10 µM stood at 91.5%. Regarding `O=C(Nc1ccc2ncccc2c1)c1ccc(Cl)cc1Cl` [CBK159793], the viability at 28.5 h, 10 µM is 96.5%. Same read-out and setting: under `O=C(Cc1cc(Cl)ccc1C(F)(F)F)Nc1ccc2ncccc2c1` [CBK159802] stands 94.7%.

On to `O=C(Cc1cc(F)c(F)c(F)c1)Nc1ccc2ncccc2c1` [CBK159811], for which the viability at 28.5 h, 10 µM was 93%. The same measure, in the same setting: to `Cc1cc(Br)ccc1C(=O)Nc1ccc2ncccc2c1` [CBK159814] belongs 92.1%. With `O=C(Nc1ccc2ncccc2c1)c1ccc(OC(F)(F)F)cc1` [CBK159815], the viability at 28.5 h, 10 µM was found to be 90.9%.

Consider `O=C(COc1ccc(F)cc1)Nc1ccc2ncccc2c1` [CBK159816], for which the viability at 28.5 h, 10 µM is 85.7%. For `CSCCC(=O)Nc1ccc2ncccc2c1` [CBK159818], the viability at 28.5 h, 10 µM worked out at 87.2%.

With `O=C(Nc1ccc2ncccc2c1)c1cccnc1` [CBK159820], the viability at 28.5 h, 10 µM is 94.1%. The same measure, in the same setting: under `CN(C)CCCC(=O)Nc1ccc2ncccc2c1` [CBK159824] stands 83.4%. The same measure, in the same setting: to `O=C(Nc1cccc(C(F)(F)F)c1)c1c(O)c2ccccc2[nH]c1=O` [CBK159985] belongs 93.2%; to `CC(C)c1c(O)c2ccccc2[nH]c1=O` [CBK159988], 89.4%. Regarding `Cc1ccc2c(O)c(C(=O)NCc3cccs3)cnc2c1` [CBK159997], the viability at 28.5 h, 10 µM was 78.2%. As to `O=C(Cc1c[nH]cn1)Nc1ccc2cc[nH]c2c1` [CBK160059], the viability at 28.5 h, 10 µM turned out to be 95.1%. For `O=C(Nc1cccc2cc[nH]c12)c1cc(F)cc(Cl)c1` [CBK160075], the viability at 28.5 h, 10 µM is 88.8%. Regarding `O=C(Nc1cccc2cc[nH]c12)c1cc(F)c(Cl)cc1F` [CBK160080], the viability at 28.5 h, 10 µM is 82.4%. Consider `O=C(Cc1c[nH]cn1)Nc1cccc2cc[nH]c12` [CBK160097], for which the viability at 28.5 h, 10 µM was determined as 86.2%. Consider `O=C(c1ccc(F)cc1)C1CCN(C(=O)c2cccnc2NCc2ccc3c(c2)OCO3)CC1` [CBK160114], for which the viability at 28.5 h, 10 µM worked out at 113%. `CC(C)(C)OC(=O)NCCNC(=O)c1cccnc1NCc1ccc2c(c1)OCO2` [CBK160117]: the viability at 28.5 h, 10 µM came out at 104%.

In the case of `CCOC(=O)c1[nH]c2ccccc2c1NC(=O)c1c(F)ccc(Cl)c1F` [CBK160141], the viability at 28.5 h, 10 µM was determined as 120%.

As for `CCOC(=O)c1[nH]c2ccccc2c1NC(=O)c1cc(F)cc(Cl)c1` [CBK160143], the viability at 28.5 h, 10 µM was 95.4%.

As for `CCOC(=O)c1[nH]c2ccccc2c1NC(=O)c1ccc(Cl)c(C)c1` [CBK160146], the viability at 28.5 h, 10 µM was 87%.

As to `CCOC(=O)c1[nH]c2ccccc2c1NC(=O)c1ccc(Br)cc1Cl` [CBK160147], the viability at 28.5 h, 10 µM came out at 91.3%. As to `CCOC(=O)c1[nH]c2ccccc2c1NC(=O)c1ccc(OC(F)(F)F)cc1` [CBK160157], the viability at 28.5 h, 10 µM was 87.8%. As to `CCOC(=O)c1[nH]c2ccccc2c1NC(=O)CN1C(=O)CSC1=O` [CBK160163], the viability at 28.5 h, 10 µM worked out at 102%. As to `CCOC(=O)c1[nH]c2ccccc2c1NC(=O)c1ccoc1` [CBK160169], the viability at 28.5 h, 10 µM stood at 107%. With `CCOC(=O)c1[nH]c2ccccc2c1NC(=O)[C@@H]1CCCN1C` [CBK160171T], the viability at 28.5 h, 10 µM worked out at 84.9%. Regarding `O=C(O)c1ccc(-c2ccc(OC(F)(F)F)cc2)nc1` [CBK160173T], the viability at 28.5 h, 10 µM turned out to be 90.6%. For the molecule `COC(=O)c1ccc(-c2ccc3[nH]ccc3c2)nc1` [CBK160174T], the viability at 28.5 h, 10 µM was 89.1%. Turning to `COC(=O)c1ccc(-c2ccc(OC)c(OC)c2)nc1` [CBK160175T], the viability at 28.5 h, 10 µM turned out to be 98.7%. Same read-out and setting: to `CC(=O)Nc1ccc(-c2ccc(C(=O)N3CCN(C(=O)c4ccco4)CC3)cn2)cc1` [CBK160186] belongs 85.8%; to `Nc1ncc(-c2ccc(C(=O)N3CCOCC3)cc2)cc1C(=O)Nc1ccncc1` [CBK160202], 93.6%; to `COc1cccc(NC(=O)c2cc(-c3ccc(C(=O)N4CCOCC4)cc3)cnc2N)c1` [CBK160203], 89.4%. On to `CC(=O)N1CCc2ccc(NC(=O)c3cc(-c4ccc(C(=O)N5CCOCC5)cc4)cnc3N)cc21` [CBK160205], for which the viability at 28.5 h, 10 µM was 89.9%.

In the case of `Cc1ccc(NC(=O)c2cncc(-c3ccc(C(=O)N4CCOCC4)cc3)c2)c(O)c1` [CBK160208], the viability at 28.5 h, 10 µM is 84.3%. As for `CC(=O)N1CCc2ccc(NC(=O)c3cncc(-c4ccc(C(=O)N5CCOCC5)cc4)c3)cc21` [CBK160217], the viability at 28.5 h, 10 µM was determined as 77.8%.

Consider `COCCNC(=O)c1cnn2c(C)c(Cc3ccccc3C)c(C)nc12` [CBK160253], for which the viability at 28.5 h, 10 µM was 94.5%.

For the molecule `COC(=O)c1cnn2c(C)c(Cc3cccc(Br)c3)c(C)nc12` [CBK160273], the viability at 28.5 h, 10 µM turned out to be 90.4%. On to `O=C(Cc1c(O)c2ccccc2[nH]c1=O)NCc1ccc(Cl)cc1` [CBK160317], for which the viability at 28.5 h, 10 µM is 101%. For `O=C(NCc1ccccc1)c1ccc2[nH]c(=O)c(-c3ccccc3)c(O)c2c1` [CBK160318], the viability at 28.5 h, 10 µM was 84%. In the case of `O=C(Cc1c(O)c2ccccc2[nH]c1=O)NCc1ccccc1Cl` [CBK160320], the viability at 28.5 h, 10 µM amounted to 88%. `CCNC(=O)c1cncc(-c2[nH]nnc2-c2ccccc2)c1` [CBK160354]: the viability at 28.5 h, 10 µM came out at 96.9%. On to `O=C(c1cncc(-c2[nH]nnc2-c2ccccc2)c1)N1CCCC1` [CBK160360], for which the viability at 28.5 h, 10 µM amounted to 91.7%.

Regarding `O=S(=O)(Nc1cccc(-c2nnn[nH]2)c1)c1ccc(Br)s1` [CBK160377], the viability at 28.5 h, 10 µM amounted to 101%. For `CNC(=O)c1cccc(NS(=O)(=O)c2sc3ccc(Cl)cc3c2C)c1` [CBK160383], the viability at 28.5 h, 10 µM is 89.3%. With `COC(=O)C1C=C(NS(=O)(=O)c2ccc(-c3ccnc(SC)n3)s2)C=CC1` (centres unmarked) [CBK160388], the viability at 28.5 h, 10 µM is 104%. As to `COC(=O)c1cccc(N(C)S(=O)(=O)c2sc3ccc(Cl)cc3c2C)c1` [CBK160390], the viability at 28.5 h, 10 µM amounted to 94.1%. For `CCOC(=O)c1ccc(NCc2c(O)ccc3oc4c(c23)CCCC4)cc1` [CBK160394], the viability at 28.5 h, 10 µM is 97.7%.

For `COc1ccccc1NCc1c(O)c(Br)cc2oc3c(c12)CCCC3` [CBK160398], the viability at 28.5 h, 10 µM was 93.4%.

Turning to `CS(=O)(=O)Nc1cccc(C(=O)O)c1` [CBK160404], the viability at 28.5 h, 10 µM came out at 96.3%. As for `Cc1ccc(CN(C2CCN(C)CC2)S(=O)(=O)c2ccccc2F)cc1` [CBK160444T], the viability at 28.5 h, 10 µM was 90.8%. For the molecule `Cc1ccc(CN(C2CCN(C)CC2)S(=O)(=O)c2ccc(F)cc2F)cc1` [CBK160448T], the viability at 28.5 h, 10 µM worked out at 97.5%. On to `Cc1onc(-c2ccccc2)c1C(=O)N1CCC1` [CBK160450], for which the viability at 28.5 h, 10 µM was found to be 90.6%. `CC(=O)CCC(=O)N1CCN(C(=O)c2ccc(-c3ccc(S(C)(=O)=O)cc3)cn2)CC1` [CBK160484]: the viability at 28.5 h, 10 µM came out at 105%. On the same count and under the same terms, to `CC(C)(C)c1ccc(CN2CCN(C(=O)c3ccc(-c4ccc(S(C)(=O)=O)cc4)cn3)CC2)cc1` [CBK160487] belongs 96.1%; to `COc1ccc(CCN(CCN2CCOCC2)C(=O)NCc2ccc3c(c2)OCO3)cc1OC` [CBK160540], 93.3%. Take `CCN(CC)C(=O)CN(CCc1ccc(OC)c(OC)c1)C(=O)NCc1cc(C)on1` [CBK160581]: the viability at 28.5 h, 10 µM came out at 96.1%.

Staying with this data set, now noted: human, hela cells, % viability, bulk resorufin, single well.
With `CC(C)(C)OC(=O)N1CCC2(CC1)OCc1cc(-c3ccc(S(C)(=O)=O)nc3)ccc1O2` [CBK159619], the viability at 28.5 h, 10 µM came out at 83.6%.
